Here are results for seven molecules from patent US5441956A, “Hydroisoquinoline derivatives” (Smithkline Beecham Farmaceutici S.p.A., priority 1991, dated 1995).

Structures can show the parent of a compound that is named as a salt.

For test [1], the target named is T1, δ opioid receptor (delta sites) (Cavia porcellus, UniProt A0A286XTF2).
T1 construct: performed on fresh guinea pig brain homogenates; from tissue; host or cells: guinea pig whole brain without cerebellum, washed membrane homogenate
Description: Binding to delta sites (radioreceptor binding, 3H-DADLE with unlabelled DAGO). As to conditions: guinea pig brain homogenate, 3H-DADLE + 30 nM DAGO, 40 min at 25° C. As for the experimental part: (§1) Radio receptor binding to delta, mu and kappa sites is performed on fresh guinea pig brain homogenates prepared according to Kosterlitz (1981). Whole brain, without cerebellum is homogenized in 50 mM Tris-buffer and centrifuged at 49,000×g for 10 min.
(§2) The pellet is then resuspended in the s3me buffer, incubated at 37° C. for 45 min. and centrifuged again.
(§3) 1.9 ml of the final homogenate (1:100 in Tris-pH 7.4 0° C.) is used for the binding assay.
For binding experiments, ^3 H-DADLE, which binds to mu and delta sites, is used in the presence of 30 nM of unlabelled DAGO to prevent mu binding. A concentration of radioligand near KD is used in the binding assays evaluating compounds of the invention. Non-specific binding is determined by addition of Mr 2266, 2.5 μM. The tubes are incubated for 40 min at 25° C. and bound ligand is separated from free by filtration through Whatman GF-G filters. The level of bound radioactivity on the filters is measured by liquid scintillation after solubilization in filtercount. The equilibrium dissociation constant (KD) and the maximum binding capacity (Bmax) are determined from the analysis of saturation curves, while the inhibition constant (Ki) is determined from the analysis of competition experiments (Hill 1910; Scatchard 1949; Cheng and Prusoff 973; Gillan et al 1980).

Test [2] concerns the target T2, κ opioid receptor (kappa sites) (Cavia porcellus, UniProt P41144).
T2 construct: performed on fresh guinea pig brain homogenates; from tissue; host or cells: guinea pig whole brain without cerebellum, washed membrane homogenate
Description: Binding to kappa sites (3H-BRL 52537A). The conditions noted are these: guinea pig brain homogenate, 40 min at 25° C. As for the experimental part: as §1, §2, §3
Final homogenate with solutions of the cold ligand and of the labelled ligand is incubated for 40 min. at 25° C., filtered through Whatman GF-C glass filter discs and washed. The radioactivity bound to the filters is counted by liquid scintillation spectrophotometry.

For test [3], the system named is mice (Male Charles River, Swiss Strain). Kind of test: Antinociception, tail-flick test in mice. Type of test: in vivo, mouse. As to conditions: i.t., 10 min pretreatment. As for the experimental part: The methodology employed is based on that described by D'Amour and Smith, J. Pharmacol. Exp. Ther. 72, 74 (1941).
Male Charles River mice (Swiss Strain) 29-35 g body weight are used.
Animals are allowed food and water ad libitum and are randomized into groups of 10 prior to experimentation.
Test compounds are dissolved in either distilled water or distilled water plus 0.1M AMS and administered by the intrathecal route in a final volume of 5 μl/mouse, according to the method described by Hylden and Wilcox, Eur. J. Pharmacol. 67,313 (1980).
Four hours prior the beginning of experiments, mice are anaesthetized with pentobarbital (80 mg/Kg i.p.) and a caudal cutaneous incision (1 cm) is performed on the back using a disposable 30 gauge 1/2 inch needles mated to a 50 μl luer siringe (Hamilton). The drug are delivered intrathecally between L5 and L6 of spinous process.
Control animals receive […] of the appropriate vehicle alone. Following a pretreatment period of 10 min., the mice are again placed under the heat source and the reaction time redetermined.
Percentage quantal protection is determined as the number of mice in which the reaction time is doubled compared to pretreatment values, expressed as a percentage of the total number of mice in the group.
On the technique in general: Hot-plate and tail-flick tests time the reaction to a heat stimulus.

In test [4] the target is T3, μ opioid receptor (mu sites) (Cavia porcellus, UniProt A0ACM8Q262).
T3 construct: 3H-DAGO (DAMGO) displacement
Description: Binding to mu sites (3H-DAGO). The conditions noted are these: guinea pig brain homogenate, 40 min at 25° C. Here is the method:
as §1, §2, §3
Binding to mu sites (Magnan J., 1982)
^3 H-[D-Ala^2, MePhe^4, Gly-Ol^5 ]Enkephalin (^3 H-DAGO), an enkephalin analogue that binds selectively to mu receptor, is added to the biological substrate and incubated at 25° C. for 40 min, filtered through Whatman GF-C filters and washed with ice-cold Tris buffer. The filters are then dried, solubilized in Filtercount and the radioactivity monitored. Non-specific binding is determined in the presence of 10^-6 M naloxone.

T1 sequence (A0A286XTF2 1-366): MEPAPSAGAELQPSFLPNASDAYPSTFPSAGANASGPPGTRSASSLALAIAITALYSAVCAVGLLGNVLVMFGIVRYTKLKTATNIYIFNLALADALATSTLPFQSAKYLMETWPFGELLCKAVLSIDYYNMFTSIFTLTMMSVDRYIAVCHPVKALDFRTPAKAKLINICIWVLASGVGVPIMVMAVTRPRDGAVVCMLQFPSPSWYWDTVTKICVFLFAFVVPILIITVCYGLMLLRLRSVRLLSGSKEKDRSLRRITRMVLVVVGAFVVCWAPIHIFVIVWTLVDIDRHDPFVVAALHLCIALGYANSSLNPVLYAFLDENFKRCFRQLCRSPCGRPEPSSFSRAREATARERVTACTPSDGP
T3 sequence (A0ACM8Q262 1-400): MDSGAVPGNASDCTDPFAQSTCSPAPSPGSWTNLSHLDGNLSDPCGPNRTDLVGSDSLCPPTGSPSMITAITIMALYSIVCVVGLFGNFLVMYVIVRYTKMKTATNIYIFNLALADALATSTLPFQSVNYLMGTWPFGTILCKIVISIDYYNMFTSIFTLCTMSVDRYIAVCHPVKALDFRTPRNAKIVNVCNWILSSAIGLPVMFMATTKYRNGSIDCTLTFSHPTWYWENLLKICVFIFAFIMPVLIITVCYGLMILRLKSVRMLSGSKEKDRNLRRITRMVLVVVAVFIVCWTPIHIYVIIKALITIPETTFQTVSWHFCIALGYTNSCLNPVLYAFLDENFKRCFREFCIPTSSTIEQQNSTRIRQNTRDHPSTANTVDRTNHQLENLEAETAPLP
T2 sequence (P41144 whole entry): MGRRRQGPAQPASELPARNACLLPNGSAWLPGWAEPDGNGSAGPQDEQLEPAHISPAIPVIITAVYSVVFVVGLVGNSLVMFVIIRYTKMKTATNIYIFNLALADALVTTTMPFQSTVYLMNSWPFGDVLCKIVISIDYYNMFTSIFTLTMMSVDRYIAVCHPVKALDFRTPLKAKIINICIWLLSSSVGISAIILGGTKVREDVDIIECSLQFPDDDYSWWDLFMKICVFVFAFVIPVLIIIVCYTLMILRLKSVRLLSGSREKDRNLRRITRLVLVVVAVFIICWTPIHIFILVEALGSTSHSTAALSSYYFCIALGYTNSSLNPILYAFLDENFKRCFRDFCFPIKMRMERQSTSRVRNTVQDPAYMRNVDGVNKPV

As usually defined, the Ki is a dissociation constant, usually derived from enzyme kinetics or from competition with a known ligand. Consider `CCN1CC[C@]2(c3cccc(O)c3)Cc3[nH]c4ccccc4c3C[C@H]2C1` (relative stereo) [Example 1, 2-ethyl-4aα-(3-hydroxyphenyl)-1,2,3,4,4a,5,11,11aβ-octahydro indolo[2,3-g]isoquinoline hydrochloride], for which the Ki in test [1] is 16.4 nM; in test [2] it was more than 1000 nM; in test [4], 2070 nM. The “Antinociception Mouse Tail-Flick ED50” value in test [3] stood at 0.010 mg/mouse.
Regarding `CN1CC[C@]2(c3cccc(O)c3)Cc3[nH]c4ccccc4c3C[C@H]2C1` (relative stereo) [Example 5, 2-Methyl-4aα-(3-hydroxyphenyl)-1,2,3,4,4a,5,11,11aβ-octahydroindolo[2,3-g]isoquinoline hydrochloride], the Ki in test [1] is 16 nM; in test [2], more than 1000 nM; in test [4], 309 nM.
In the same order, the values of `CN1CC[C@]2(c3cccc(O)c3)Cc3c(c4ccccc4n3C)C[C@H]2C1` (relative stereo) [Example 7, 2,6-Dimethyl-4aα-(3-hydroxyphenyl)-1,2,3,4,4a,5,11,11aβ-octahydroindolo[2,3-g]isoquinoline] are 33.6 nM, more than 1000 nM and 306 nM.
In the same order, the values of `CN1CC[C@]2(c3cccc(O)c3)Cc3oc4ccccc4c3C[C@H]2C1` (relative stereo) [Example 10, 2-Methyl-4aα-(3-hydroxyphenyl)-1,2,3,4,4a,5, 11, 11aβ-octahydrobenzofuro[2,3-g]isoquinoline] are 10.1 nM, more than 1000 nM and 104 nM.
`Cc1ccc2[nH]c3c(c2c1)C[C@H]1CN(C)CC[C@]1(c1cccc(O)c1)C3` (relative stereo) [Example 12, 2,9-Dimethyl-4aα-(3-hydroxyphenyl)-1,2,3,4,4a,5,11,11aβ-octahydroindolo[2,3-g]isoquinoline]: the results for the Ki in test [1], in test [2] and in test [4] were 61.9 nM, more than 1000 nM and 678 nM, respectively.
On the same counts, the results for `CN1CC[C@]2(c3cccc(O)c3)Cc3[nH]c4c(Cl)cccc4c3C[C@H]2C1` (relative stereo) [Example 16, 2-Methyl-4aα-(3-hydroxyphenyl)-7-chloro-1,2,3,4,4a,5,11,11aβ-octahydroindolo[2,3-g]isoquinoline] are 16.4 nM, more than 1000 nM and 568 nM.
On the same counts, the results for `CCN1CC[C@]2(c3cccc(O)c3)Cc3[nH]c4ccccc4c3C[C@H]2C1` (single isomer, unassigned) [Example 39, (+)-2-Ethyl-4aα-(3-hydroxyphenyl)-1,2,3,4,4a,5,11,11aβ-octahydroindolo[2,3-g]isoquinoline hydrochloride] are 6.24 nM, more than 1000 nM and 2260 nM.
